Patent US20090270373A1, “TREATMENT OF DOWN SYNDROM WITH BENZODIAZEPINE RECEPTOR ANTAGONISTS” (Cypress Biosciences, Inc., priority 2008, published 2009)

Columns and labels:
[1] = system: Ts65Dn mice; assay type: in vivo, mouse; conditions: 4-week crossover, flumazenil or bretazenil 1.0 mg/kg i.p. for 2 weeks, bilobalide 5.0 mg/kg i.p. throughout
Method: (§1) A 4-week longitudinal crossover study is carried out following the method outlined by Fernandez et al., supra. Wild-type and Ts65Dn mice (3-4 months of age) are randomly assigned to groups receiving daily i.p. injections of saline or flumazenil (1.0 mg/kg), and are submitted to four weekly repetitions of object recognition testing, in which the animals are serially presented with four different object sets. At the 2-week midpoint of the experimental period, wild-type and Ts65Dn mice that have been receiving saline are randomly segregated into groups that either continue to receive daily saline injections or begin to receive daily injections of flumazenil. Conversely, wild-type and Ts65Dn mice that have been chronically administered flumazenil in the first 2 weeks of testing are switched onto a saline regimen. Alongside saline and flumazenil, bilobalide (i.p. 5.0 mg/kg) may be evaluated as a positive control. Bilobalide is a picrotoxin-like compound that may safely be administered for the whole 4-week experiment.
(§2) Flumazenil may also be tested for its effects on declarative memory in the novel object recognition test and in a modified spontaneous alternation task. Wild-type and Ts65Dn mice may be administered flumazenil (3 mg/kg in milk via voluntary oral feeding or 1 mg/kg i.p.). The wild-type and Ts65Dn mice are administered from 5 to 30 doses of milk or milk-flumazenil (or saline or flumazenil solution i.p.). The mice are then subjected to two repetitions of novel object recognition testing or three daily T-maze sessions at the tail end of the treatment regimen. […] Comparison of treated and untreated Ts65Dn mice will provide controls for any possible arm bias in the spontaneous alternation task.
as §1, with “bretazenil” for “flumazenil”, “bretazenil.” for “flumazenil.”, “bretazenil,” for “flumazenil,”
as §2, with “Bretazenil may” for “Flumazenil may”, “administered bretazenil” for “administered flumazenil”

[2] = system: Ts65Dn mice; assay: Long-term potentiation (LTP) in the dentate gyrus of Ts65Dn mice (paper Examples 1 and 2); assay type: in vivo, mouse; conditions: about 1 month after cessation of drug treatment
Source text: Since the ability of animals to learn and remember is thought to be encoded at the synaptic level, and involves the ability of synapses to undergo long-term changes in synapse strength, long-term potentiation (LTP) in the dentate gyrus may be evaluated.

[3] = system: Down Syndrome patients; assay: Cognition in Down Syndrome patients, double-blind cross-over (Example 3); assay type: in vivo, human; conditions: 5 and 20 mg
Method: Fifteen adult or adolescent Down Syndrome patients experiencing at least some level of cognitive impairment participate in a double-blind, cross-over comparison of […]. The drugs administered are flumazenil (5 and 20 mg), bretazenil (5 and 20 mg) or placebo. Subjects are randomly assigned to treatments according to a Williams Square design (Higgitt, supra (citing Williams, “Experimental designs balanced for the estimation of residual effects of treatments, Aust. J. Sci. Res. 2:149-168 (1949))). Each subject receives a different sequence of four treatments balanced for carry-over effects and separated by at least 1 week of wash-out period. […]
Psychophysiological indices to be measured include: EEG, skin conductance, finger tremor, critical flicker fusion threshold, blood pressure and pulse rate, key tapping rate, and reaction time. […]
EEG and evoked responses: These are recorded during the same EEG recording procedure. […] In addition, the four values are summed and each is expressed as a percentage of the total.
The averaged evoked responses are obtained from the 500 ms epoch of the EEG following each of the 32 click stimuli. […] The latency at each peak and peak-to-peak amplitudes are computed and recorded automatically. […]
Skin conductance, blood pressure and pulse rate can be measured by the method of Higgitt et al., supra. […]

[4] = system: Ts65Dn mice; conditions: cited from earlier work; for improvement in cognition: 4 week crossover study
[5] = system: WT and Ts65Dn mice; assay: Open-field locomotor assay (LMA), 30 min session; assay type: in vivo, mouse
Method: (§3) Following baseline determinations and group assignments, WT and Ts65Dn mice received intraperitoneal (i.p.) injections once/day (08:00) for the two-week duration of the drug treatment regimen (FIG. 1). Drugs were dissolved in physiological saline. Two drops of Tween 80 were used to facilitate solution formation for flumazenil. Picrotoxin was initially made up at 50× concentration in 20% ethanol and then diluted down to a […] solution with 0.4% ETOH in saline. Doses of drugs were based on previous behavioral research in mice (1 mg/kg for PTX and 10 mg/kg for flumazenil). Injections were given in a volume of 10 ml/kg. A vehicle control was run along side the treatment groups (0.4% ETOH in saline).
(§4) FIG. 1 graphically depicts the protocol. After habituation to the animal facility, mice were tested for baseline behaviors in the open-field locomotor assay (LMA)(30 min session) and the novel object recognition assay. Primary experimental groups were divided by genotype (Ts65Dn mice and wild-type control littermates). These two groups were further divided into drug treatments (vehicle, PTX and flumazenil) with a targeted n-size of 8 mice/group (24 WT and 24 Ts65Dn mice total). The group assignments were made in a semi-random process due to constraints in animal availability (staggered shipping) and choice of initial treatment groups (e-mail documentation between Bilsky laboratory and Cypress Bioscience on file). Daily morning injections began on Day 1 and went through the morning of Day 14. On Days 7/8 and 14/15 (13:00) mice were tested in the behavioral assay. Mice were kept for an additional two weeks and re-tested on Days 21/22 and 28/29 to assess the duration of the drug treatment effect.
General levels of arousal, locomotor activity and anxiety were assessed using an automated open-field activity monitoring system (Coulbourn Instruments with TruScan software). The open field test that were run were fully automated assays that quantified many different aspects and patterns of movement, including total distance traveled, time spent moving, rearing, and various stereotypic patterns of activity. The software calculates the time spent in the middle portions of the open field versus the outer zones alongside the outside walls. These variables can be used as one measure of general anxiety levels.
Mice were placed into an open field (26 cm×26 cm) in a brightly lit room. Two sensor rings (x-y plane and a vertical z plane) generate an array of infrared beams that surround the chamber. The pattern of beam breaks was recorded and the data fed into a personal computer. The TruScan software interpreted the beam breaks to calculate the movement variables and patterns of activity, with a temporal resolution of 100 msec. A 30 minutes session was used for assessment of the mice on Day 0 (Baseline) and then on Days 1, 7, 14, 21 and 28. Data were exported into an Excel spreadsheet, graphed and analyzed using parametric and non-parametric statistics.

[6] = system: WT mice; assay: Novel object recognition assay (Discrimination Index) in WT mice; assay type: in vivo, mouse
Method: as §3, §4
(§5) The novel object recognition task is based on the innate tendency of rodents to differentially explore novel objects over familiar ones. The task is well validated for evaluating rodent memory and the effects of drug treatments on learning/memory performance.
(§6) Mice were trained and tested once per week, each experimental session separated by a one-week interval. Mice were submitted to daily handling sessions, and given an opportunity to habituate to an open field arena (48 cm×48 cm wide×25 cm), where they were exposed to two different objects (complex protocol), during a 5-minute training session. Objects were made from various non-porous materials that differ in shape and color. Mice were unable to climb onto the objects and the objects were generally consistent in height and volume, and were roughly symmetrical on a horizontal plane. Objects were positioned in two corners of the apparatus. To control for odor cues, the open field arena and the objects are thoroughly cleaned with 90% ethanol, dried, and ventilated for a few minutes between mice.
(§7) A 5-minute testing session was conducted 24 h after training. Here, the mice were presented with the object they had explored the previous day, and a new item (the objects being alternatively positioned in one corner or another in a balanced fashion within a given week, and from one week to another). […]

[7] = system: Ts65Dn mice; assay: Novel object recognition assay (Discrimination Index) in Ts65Dn mice, model of Down syndrome; assay type: in vivo, mouse
Method: as §3, §4, §5, §6, §7

[8] = Week 1 of drug therapy, PTX 1 mg/kg, flumazenil 10 mg/kg i.p.

| Compound | object recognition performance [1] | LTP in the dentate gyrus [2] | indicators of cognition as compared to placebo [3] | improvement in cognition [4] | LMA center distance traveled ([5]; 7 and 14 days post dosing) | LMA margin vs. center time ([5]; Day 1) | LMA margin vs. center time ([5]; Day 7) | LMA margin vs. center time ([5]; Day 21 (washout period)) | LMA margin vs. center time ([5]; Day 28 (washout period)) | LMA vertical rearing ([5]; WT and Ts65Dn mice, PTX during drug administration phases, flumazenil over the 4 week testing regimen) | LMA marginal distance traveled ([5]; WT and Ts65Dn mice, across sessions, PTX 1 mg/kg, flumazenil 10 mg/kg i.p.) | LMA total distance traveled ([5]; dosing phase (Days 1, 7 and 14), PTX 1 mg/kg i.p.) | LMA center distance traveled ([5]; drug administration phase (Days 1, 7 and 14), PTX 1 mg/kg, flumazenil 10 mg/kg i.p.) | time after last dosing until LMA effects were gone ([5]; total distance traveled, PTX 1 mg/kg i.p.) [days] | Discrimination Index (DI) [6, 8] | Discrimination Index (DI) ([6]; Week 2 of drug therapy, versus vehicle) | Discrimination Index (DI) ([6]; Week 4 (2 weeks post dosing)) | Discrimination Index (DI) [7, 8] | Discrimination Index (DI) ([7]; Week 2 of drug therapy) | rescue of cognition ([4]; Ts65Dn mice, two-week dosing regimen of 1.0 mg/kg i.p.) |
| --- | --- | --- | --- | --- | --- | --- | --- | --- | --- | --- | --- | --- | --- | --- | --- | --- | --- | --- | --- | --- |
| CC(C)(C)OC(=O)c1ncn2c1[C@@H]1CCCN1C(=O)c1c(Br)cccc1-2 [bretazenil, tert-butyl-(S)-8-bromo-11,12,13,13a-tetrahydro-9-oxo-9H-imidazo[1,5-a]pyrrolo[2,1-c][1,4]benzodiazepine-1-carboxylate] | normalized object recognition performance | Normalized LTP | improvement in one or more indicators of cognition | – | – | – | – | – | – | – | – | – | – | – | – | – | – | – | – | – |
| CC(C)(C)[C@]1(O)CC2OC(=O)CC23C(=O)OC2OC(=O)[C@H](O)C231 (stereo partly shown) [bilobalide] | normalized object recognition performance | – | – | statistically significant improvement | – | – | – | – | – | – | – | – | – | – | – | – | – | – | – | – |
| picrotoxin [PTX] | – | – | – | statistically significant improvement | mild rebound effect | trend for decreased center time | small decrease in time spent in the center zone | increased time spent in center | trend for increased time spent in the center zone | dropping significantly | decreased distance traveled | modest decrease | decreased levels of activity | ≤ 7 | ~30 | no differences | positive DI | positive effects | positive effects | clear benefit |
